According to patent publication US20190086390A1, “INDIRECT ASSESSMENT OF INSULIN RELEASE IN A CELL” (Board of Supervisors of Louisiana State University and …, priority 2016, published 2019):
Several values for one entry are separate records, joined by “and”; a condition that tells them apart may be missing. Identical values can stand only once.

Legend:
Assay type in all cases: cell-based, rat
[1] = test system: 832/13 cells; test: Tritiated thymidine incorporation into DNA (proliferation); conditions: IL-1β 18 h
Method: (§1) 832/13 cells were grown in 12-well plates and treated as indicated. Glucose-stimulated insulin secretion (GSIS) assays were performed as described previously (29). Insulin secretion by cell lines into the media was measured using either the High Range Rat Insulin ELISA kit (Mercodia, Uppsala, Sweden) or by rat islets using the insulin radioimmunoassay (Siemens, Malvern, Pa.) according to the company directions. In addition, cells were lysed using M-PER lysis reagent (Thermo Fisher Scientific) to quantify total intracellular protein content via BCA assay (Thermo Fisher Scientific). Insulin secretion data were normalized to total protein to account for any differences in cell number between treatment groups. Incorporation of tritiated thymidine into DNA as a cellular index of proliferation was carried out as described (45).

[2] = test system: 832/13 cells; test: Nitric oxide by EPR spectroscopy with (MGD)2Fe2+ spin trap; conditions: 1 ng/ml IL-1β 18 h
Method: The spin trap Af-methyl-d-glucamine dithiocarbamate-iron complex [(MGD)2-Fe^2+] was prepared fresh in each experiment by making stock solutions of 500 mM MGD and 100 mM Fe^2+ (from FeS04.7 H20) in ultrapure water under anaerobic conditions. A final concentration of 25 mM MGD and 5 mM Fe^2+ was introduced onto cells in culture using serum-free media with a 30-min incubation period. Supernatants were then collected for the measurements of the (MGD)2-iron-NO complex. All electron paramagnetic resonance (EPR) measurements were carried out in a quartz flat cell at room temperature. Samples were transferred directly into the flat cell, which was then placed into the cavity of a Bruker EMX Plus spectroscope. Typical instrumental conditions were as follows: 20 mW of microwave power, 5.0-G modulation amplitude, 1×10^5 gain, 0.163-s time constant, and 80-G scan range. Quantitation was carried out by measuring and comparing the first peak heights on the spectra.

[3] = test system: 832/13 cells; test: Live cell calcium imaging, glucose-induced calcium response (Calcium Green)
Method: 832/13 cells were plated into six-well plates containing poly-d-lysine-coated coverslips (Neuvitro, Vancouver, Wash.). At 50% confluence, cells were treated for 18 h with one of four experimental groups: 1 ng/ml […] alone, 1 mM I-NMMA alone, IL-1β+ I-NMMA, or normal growth media. Immediately prior to imaging, cells were preloaded with Calcium Green 1 AM (CG, C3012; Life Technologies) by transferring coverslips to a solution of 10|×M CG in 20% Pluronic F127 in DMSO (Life Technologies) made up in carbogenated (95% 02-5% C02) normal Krebs. The recipe for normal Krebs solution was (in mM) 124 NaCl, 25 NaHC03, 2 glucose, 3 KC1, 2 CaCl2, 1.5 NaH2P04, and 1 MgS04-7H20, which corrected to pH 7.4 with HCl. After incubation in the CG solution for 30 min, coverslips were transferred to carbogenated normal Krebs at 29° C.
Coverslips were transferred to a recording chamber on a fixed stage Zeiss Axioskop2 microscope equipped with a Perkin Elmer Ultra-view/Yokogawa C10 spinning disk laser confocal illuminator. Cells were illuminated with the 488 nm laser; CG-calcium fluorescence signals were collected at 509 nm. Cells were visualized with a X40 water immersion objective. Images were collected with a Hammamatsu Ocra-ER charge-coupled device camera. The confocal system, including image collection, was controlled by Perkin-Elmer Improvision software.
Cells on coverslips were constantly perfused with normal Krebs solution at 29° C. at a rate of 3 ml/min. After 10 min, the perfusion solution was switched to one containing 12 mM glucose and proportionally less sodium chloride to maintain osmolality. The 12 mM glucose challenge was applied for 5 min, followed by a 5 min washout period. Images of CG-labeled cells were collected continuously during the challenge period at a rate of 20/min, with each frame taking 1 s. Images were collected as TIFF stacks and processed using Nikon Elements AR software. Individual cells in the field were designated as regions of interest (ROI), and their fluorescence signal over time was captured. Background fluorescence was subtracted from the fluorescence signal of individual ROIs. The relative changes in cytoplasmic calcium in the cells were expressed as changes in fluorescence [(AF/F) %], where F is the intensity of the baseline fluorescence signal before stimulation and AF is the difference between the peak fluorescence intensity and the baseline signal. Therefore, magnitude of response was normalized for each individual ROI.

[4] = test system: 832/13 cells; test: Glucose-stimulated insulin secretion (GSIS) in 832/13 cells, insulin ELISA; conditions: for decrease in GSIS: 1 ng/ml IL-1β
Method: as §1

[5] = pretreated 18 h with IL-1β alone, 12 mM glucose

## IL-1β: proinflammatory cytokine purchased from Thermo Fisher Scientific, used at 1 ng/ml
[1]
  ability to incorporate thymidine into DNA: reduced markedly
[2]
  nitric oxide production in response to IL-1β: robust production of nitric oxide
[3]; [5]
  average response magnitude (change in fluorescence): 20%
  cells responding to the glucose challenge: 61%
[3]; pretreated with IL-1β alone
  reduction of responses relative to control group: 39%
[4]; 6 h
  decrease in GSIS: 40% and 36%
[4]; 12 h
  decrease in GSIS: 59%
[4]; IL-1β
  time by which insulin secretion began to decrease: ≤ 6 h
[4]; IL-1β, associated with 13-fold increase in nitrite, time not given
  diminution in GSIS: 54%
